Structures can show the parent of a compound that is named as a salt.

Assay [1] concerns tumor. Put plainly: Combined treatment of anticancer agent and extracorporeal perfusion: tumor volume. The assay is classed as in vivo, rat. As to conditions: anticancer agent administered, no extracorporeal perfusion. How it is done: The dimensions of the tumor region of a rat were measured using micrometer calipers. The longest diameter of the tumor was defined as the major axis, and a diameter of the tumor passing through the midpoint of the major axis in a direction perpendicular to the major axis was defined as the minor axis. The tumor volume was defined according to the following equation: Tumor Volume=(Major Axis)×(Minor Axis)×(Minor Axis)×0.5[Adsorbent for TGF β and Immunosuppressive Acidic Protein] […]
One week after the inoculation of cancer cells (rat body weight: 400 to 430 g), 0.6 mg of gemcitabine hydrochloride was injected in the vicinity of the tumor. The gemcitabine hydrochloride used herein was prepared by dissolving an injection preparation thereof (available from Eli Lilly Japan K.K.) in physiological saline to yield a 20 mg/mL solution. […]
Six rats were treated, and the tumor volumes after the inoculation of cancer cells were determined. The results in Comparative Examples 15 to 20, in which the anticancer agent was administered but the extracorporeal perfusion treatment was not carried out, are shown in Table 5.

The subject of assay [2] is tumor. Kind of assay: Visual observation of tumor metastasis. The settings on record: rats dissected 35 days after the extracorporeal perfusion, region other than beneath the back skin. The assay is classed as in vivo, rat. The text has this:
The test procedures of Examples 10 to 15 and Comparative Examples 11 to 22 were repeated, except for using three other rats (Examples 16 to 18, and Comparative Examples 21 to 26). The metastasis of the tumor to a region other than beneath the back skin to which the tumor was inoculated was visually observed (Table 6). The rats were dissected 35 days after the extracorporeal perfusion, and the tumor was observed. As a result, the metastasis was hardly observed in cases in which the extracorporeal perfusion treatment was carried out two days into the administration of gemcitabine hydrochloride.

On to `Nc1ccn([C@@H]2O[C@H](CO)[C@@H](O)C2(F)F)c(=O)n1` [Comparative Example 15, gemcitabine hydrochloride], for which the Tumor volume with tumor [1] (14 days after inoculation of cancer cells) was less than 0.06 mL; with tumor [1] (21 days after inoculation of cancer cells, hydrochloride), 4.3 mL; in the assay with tumor [1] (21 days after inoculation of cancer cells, listed as Comparative Example 16, hydrochloride), 7.9 mL; with tumor [1] (21 days after inoculation of cancer cells, listed as Comparative Example 17, hydrochloride), 6.6 mL; in the assay with tumor [1] (21 days after inoculation of cancer cells, listed as Comparative Example 18, hydrochloride), 7.4 mL; in the assay on tumor [1] (21 days after inoculation of cancer cells, listed as Comparative Example 19, hydrochloride) it was 7.0 mL. For the same compound, the Tumor volume in the assay on tumor [1] (21 days after inoculation of cancer cells, listed as Comparative Example 20, hydrochloride) is recorded as 4.5 mL; in the assay on tumor [1] (28 days after inoculation of cancer cells, hydrochloride), 26 mL; in the assay with tumor [1] (28 days after inoculation of cancer cells, listed as Comparative Example 16, hydrochloride), 41 mL; in the assay with tumor [1] (28 days after inoculation of cancer cells, listed as Comparative Example 17, hydrochloride), 24 mL; with tumor [1] (28 days after inoculation of cancer cells, listed as Comparative Example 18, hydrochloride), 35 mL; with tumor [1] (28 days after inoculation of cancer cells, listed as Comparative Example 19, hydrochloride), 30 mL. The Tumor volume in the assay with tumor [1] (28 days after inoculation of cancer cells, listed as Comparative Example 20, hydrochloride) is 25 mL; in the assay with tumor [1] (35 days after inoculation of cancer cells, hydrochloride), 41 mL; in the assay on tumor [1] (35 days after inoculation of cancer cells, listed as Comparative Example 16, hydrochloride), 59 mL; in the assay on tumor [1] (35 days after inoculation of cancer cells, listed as Comparative Example 17, hydrochloride) it was 38 mL; in the assay with tumor [1] (35 days after inoculation of cancer cells, listed as Comparative Example 18, hydrochloride), 54 mL; in the assay on tumor [1] (35 days after inoculation of cancer cells, listed as Comparative Example 19, hydrochloride) it was 47 mL. For the same compound, the Tumor volume in the assay with tumor [1] (35 days after inoculation of cancer cells, listed as Comparative Example 20, hydrochloride) was 37 mL. The “Metastasis (visual observation)” value in the assay with tumor [2] (listed as Com. Ex. 25, hydrochloride) is recorded as “dermic micrometastasis (2 mm”; in the assay on tumor [2] (listed as Com. Ex. 26, hydrochloride), “dermic micrometastasis (2 mm”.

Values taken from patent US8932590B2, “Method of adsorbing transforming growth factor β” (TORAY Industries, Inc., priority 2002, dated 2015).
